Experimental data from patent publication US20060160863A1, “Polymorphic and amorphous forms of 2-{3-[(E)-2-(4,6-dimethyl-pyridin-2-yl)-vinyl]-1H-indazol-6-ylamino}-N-(4-hydroxy-but-2-ynyl)benzamide” (AGOURON PHARMACEUTICALS, INC., priority 2005, published 2006).
≈ marks a conversion by molar mass, not a printed value.

Assay: aqueous solubility in 0.1 M sodium phosphate buffer (pH 7.4)
Assay type: physicochemical
From the text: The present invention provides several polymorph crystalline forms and an amorphous form of the compound of Formula I. Each crystalline or amorphous form of the compound can be characterized by one or more of the following: X-ray powder diffraction pattern (i.e., X-ray diffraction peaks at various diffraction angles (2θ), melting point onset (and onset of dehydration for hydrated forms) as illustrated by endotherms of a Differential Scanning Calorimetry (DSC) thermogram, aqueous solubility, light stability under International Conference on Harmonization (ICH) high intensity light conditions, and physical and chemical storage stability.

| aqueous solubility | SMILES |
| --- | --- |
| 0.8 µg/mL (≈ 1.77 µM) | Cc1cc(C)nc(/C=C/c2n[nH]c3cc(Nc4ccccc4C(=O)NCC#CCO)ccc23)c1 [Form Ia, 2-{3-[(E)-2-(4,6-dimethyl-pyridin-2-yl)-vinyl]-1H-indazol-6-ylamino}-N-(4-hydroxy-but-2-ynyl)-benzamide] |
| 1.3 µg/mL (≈ 2.88 µM) | Cc1cc(C)nc(/C=C/c2n[nH]c3cc(Nc4ccccc4C(=O)NCC#CCO)ccc23)c1 [Form IV, 2-{3-[(E)-2-(4,6-dimethyl-pyridin-2-yl)-vinyl]-1H-indazol-6-ylamino}-N-(4-hydroxy-but-2-ynyl)-benzamide] |
| 1.3 µg/mL (≈ 2.88 µM) | Cc1cc(C)nc(/C=C/c2n[nH]c3cc(Nc4ccccc4C(=O)NCC#CCO)ccc23)c1 [Form II, 2-{3-[(E)-2-(4,6-dimethyl-pyridin-2-yl)-vinyl]-1H-indazol-6-ylamino}-N-(4-hydroxy-but-2-ynyl)-benzamide] |
| 3.2 µg/mL (≈ 7.09 µM) | Cc1cc(C)nc(/C=C/c2n[nH]c3cc(Nc4ccccc4C(=O)NCC#CCO)ccc23)c1 [Form III, 2-{3-[(E)-2-(4,6-dimethyl-pyridin-2-yl)-vinyl]-1H-indazol-6-ylamino}-N-(4-hydroxy-but-2-ynyl)-benzamide] |
